Laboratory results as given in patent US20060069132A1, “Azolecarboxamide herbicides” (priority 2004, published 2006).

Tests used:
lambsquarters = assay: Test B pre-/postemergence herbicide test; assay type: in vivo, Chenopodium album; conditions: for Lambsquarters plant response rating: postemergence, scale 0 (no effect) to 100 (complete control)
In short: (§1)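 Plants compared with untreated controls 13–15 days post-treatment and given a visual 0–100 injury score. Applications: preemergence to seeds; postemergence at 1- to 4-leaf (2–18 cm); paddy species flooded, 2-leaf stage. Vehicle non-phytotoxic, surfactant included.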

ducksalad [1] = assay: Test C flooded paddy test; assay type: in vivo, Heteranthera limosa
morningglory = assay: Test B pre-/postemergence herbicide test; assay type: in vivo, Ipomoea coccinea; conditions: for Morningglory plant response rating: postemergence, visual rating, scale 0 (no effect) to 100 (complete control)
In short: (§2)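 Evaluation is visual, comparing treated with control plants on a scale where 0 means no effect and 100 means full control. Treatments were preemergence, or postemergence on seedlings 2–18 cm tall, and held 13–15 days in the greenhouse.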

blackgrass = assay: Test B postemergence herbicide test; assay type: in vivo, Alopecurus myosuroides; conditions: postemergence, visual rating, scale 0 (no effect) to 100 (complete control)
In short: (§3)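 Each value is a visual 0–100 response rating taken against controls 13 to 15 days after treatment in the greenhouse. Plants received formulated chemical postemergence at the 1- to 4-leaf stage or, in flooded paddy, at the 2-leaf stage.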

pigweed = assay: Test B pre-/postemergence herbicide test; assay type: in vivo, Amaranthus retroflexus; conditions: for Pigweed plant response rating: postemergence, scale 0 (no effect) to 100 (complete control)
In short: as §1

rice [2] = assay: Test C flooded paddy test; assay type: in vivo, Oryza sativa
In short: (§4)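 Plants were grown to the 1- to 4-leaf stage (2–18 cm) and then treated postemergence, or grown to the 2-leaf stage for the flooded paddy test. They were held in a greenhouse for 12 to 14 days and then scored by eye against controls, where 0 is no effect and 100 is complete control.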

wild oat = assay: Test B postemergence herbicide test; assay type: in vivo, Avena fatua; conditions: postemergence, visual rating, scale 0 (no effect) to 100 (complete control)
In short: (§5)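 Greenhouse test; postemergence application to plants at 1–4 leaves (2–18 cm); paddy species at 2 leaves; evaluated visually vs controls at 13–15 days; scale 0–100 (100 = complete control).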

rice [3] = assay: Test B pre-/postemergence herbicide test; assay type: in vivo, Oryza sativa; conditions: 0 = no effect, 100 = complete control, preemergence
In short: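 Greenhouse pot assay with simultaneous preemergence (treated seed) and postemergence (2–18 cm seedlings) applications of surfactant-containing, non-phytotoxic solvent formulations. Response scored visually 13–15 days later on a 0–100 scale, 100 meaning complete control.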

rice [4] = assay: Test B flooded paddy test; assay type: in vivo, Oryza sativa; conditions: 1000 g ai/ha, visual rating, scale 0 to 100 (0 no effect, 100 complete control), 13 to 15 days
In short: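 Formulated test chemicals went onto postemergence plants measuring 2 to 18 cm, at one to four leaves. For the paddy assay, species had reached two leaves. Scoring took place 13–15 days later by eye, relative to untreated plants, using 0 for no effect up to 100 for full control.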

cocklebur = assay: Test B pre-/postemergence herbicide test; assay type: in vivo, Xanthium strumarium; conditions: for Cocklebur plant response rating: postemergence, scale 0 (no effect) to 100 (complete control)
In short: as §2

barnyardgrass [5] = assay: Test C flooded paddy test; assay type: in vivo, Echinochloa crus-galli
In short: as §4

[6] = system: small flower umbrella sedge; assay: Test B flooded paddy test; assay type: in vivo, Cyperus difformis; conditions: 1000 g ai/ha, visual rating, scale 0 to 100 (0 no effect, 100 complete control), 13 to 15 days
In short: as §3

wheat = assay: Test B postemergence herbicide test; assay type: in vivo, Triticum aestivum; parameters: key to Wheat plant response rating: 0 = no effect, 100 = complete control; conditions: postemergence, visual rating, scale 0 (no effect) to 100 (complete control)
In short: as §5

giant foxtail = assay: Test B pre-/postemergence herbicide test; assay type: in vivo, Setaria faberi; conditions: for Foxtail, Giant plant response rating: postemergence, scale 0 (no effect) to 100 (complete control)
In short: as §1

barnyardgrass [7] = assay: Test B pre-/postemergence herbicide test; assay type: in vivo, Echinochloa crus-galli; conditions: for Barnyardgrass plant response rating: postemergence, scale 0 (no effect) to 100 (complete control)
In short: as §2

ducksalad [8] = assay: Test B flooded paddy test; assay type: in vivo, Heteranthera limosa; conditions: 1000 g ai/ha, visual rating, scale 0 to 100 (0 no effect, 100 complete control), 13 to 15 days
In short: as §3

velvetleaf = assay: Test B pre-/postemergence herbicide test; assay type: in vivo, Abutilon theophrasti; conditions: for Velvetleaf plant response rating: postemergence, scale 0 (no effect) to 100 (complete control)
In short: as §1

barnyardgrass [9] = assay: Test B flooded paddy test; assay type: in vivo, Echinochloa crus-galli; conditions: 1000 g ai/ha, visual rating, scale 0 to 100 (0 no effect, 100 complete control), 13 to 15 days
In short: as §3

[10] = system: smallflower umbrella sedge; assay: Test C flooded paddy test; assay type: in vivo, Cyperus difformis
corn = assay: Test B pre-/postemergence herbicide test; assay type: in vivo, Zea mays; conditions: for Corn plant response rating: postemergence, scale 0 (no effect) to 100 (complete control)
In short: as §1

large crabgrass = assay: Test B pre-/postemergence herbicide test; assay type: in vivo, Digitaria sanguinalis; conditions: for Crabgrass, Large plant response rating: postemergence, scale 0 (no effect) to 100 (complete control)
In short: as §1

Surinam grass = assay: Test B pre-/postemergence herbicide test; assay type: in vivo, Urochloa decumbens; conditions: for Surinam Grass plant response rating: postemergence, scale 0 (no effect) to 100 (complete control)
In short: as §1

[11] = 125 g ai/ha, 0 = no effect, 100 = complete control, preemergence
[12] = 500 g ai/ha, visual rating, 0 = no effect, 100 = complete control, preemergence
[13] = 125 g ai/ha, scale 0 to 100 (0 no effect, 100 complete control)
[14] = 250 g ai/ha, scale of 0 to 100, 0 is no effect, 100 is complete control
[15] = 500 g ai/ha, visual rating after 12 to 14 days, scale 0 to 100 (0 no effect, 100 complete control)
[16] = 62 g ai/ha, scale 0 to 100 (0 no effect, 100 complete control)

CCNC(=O)c1cccc(NC(=O)c2nn(C(C)(C)C)cc2Cl)c1 [Compound 219]
60: Morningglory plant response rating (morningglory; 500 g ai/ha)
0: Lambsquarters plant response rating (0 to 100 scale) (lambsquarters; [11]) | Plant response rating, Lambsquarters (lambsquarters; [12]) | Lambsquarters plant response rating (lambsquarters; 125 g ai/ha, visual rating) | Ducksalad plant response rating (ducksalad [1]; [13]) | Ducksalad plant response rating (ducksalad [1]; [14]) | Plant response rating, Ducksalad (ducksalad [1]; [15]) | Morningglory plant response rating (0 to 100 scale) (morningglory; [11]) | Morningglory plant response rating (morningglory; 125 g ai/ha) | Blackgrass plant response rating (blackgrass; 125 g ai/ha) | Blackgrass plant response rating (blackgrass; 500 g ai/ha) | Pigweed plant response rating (0 to 100 scale) (pigweed; [11]) | Rice plant response rating (rice [2]; [16]) | Rice plant response rating (rice [2]; [13]) | Rice plant response rating (rice [2]; [14]) | Plant response rating, Rice (rice [2]; [15]) | Oat, Wild plant response rating (wild oat; 125 g ai/ha) | Oat, Wild plant response rating (wild oat; 500 g ai/ha) | Rice plant response rating (0 to 100 scale) (rice [3]; 125 g ai/ha) | Plant response rating, Rice (rice [3]; 500 g ai/ha, visual rating) | Rice plant response rating (rice [4]) | Cocklebur plant response rating (0 to 100 scale) (cocklebur; [11]) | Plant response rating, Cocklebur (cocklebur; [12]) | Cocklebur plant response rating (cocklebur; 125 g ai/ha, visual rating) | Barnyardgrass plant response rating (barnyardgrass [5]; [16]) | Barnyardgrass plant response rating (barnyardgrass [5]; [13]) | Barnyardgrass plant response rating (barnyardgrass [5]; [14]) | Plant response rating, Barnyardgrass (barnyardgrass [5]; [15]) | Wheat plant response rating (wheat; 125 g ai/ha) | Wheat plant response rating (wheat; 500 g ai/ha) | Foxtail, Giant plant response rating (0 to 100 scale) (giant foxtail; [11]) | Plant response rating, Foxtail, Giant (giant foxtail; [12]) | Foxtail, Giant plant response rating (giant foxtail; 125 g ai/ha, visual rating) | Barnyardgrass plant response rating (0 to 100 scale) (barnyardgrass [7]; [11]) | Barnyardgrass plant response rating (barnyardgrass [7]; 125 g ai/ha, visual rating) | Barnyardgrass plant response rating (barnyardgrass [7]; 500 g ai/ha, visual rating) | Velvetleaf plant response rating (0 to 100 scale) (velvetleaf; [11]) | Velvetleaf plant response rating (velvetleaf; 125 g ai/ha, visual rating) | Barnyardgrass plant response rating (barnyardgrass [9]) | Sedge, Umbrella plant response rating [10, 16] | Sedge, Umbrella plant response rating [10, 13] | Sedge, Umbrella plant response rating [10, 14] | Corn plant response rating (0 to 100 scale) (corn; [11]) | Plant response rating, Corn (corn; [12]) | Corn plant response rating (corn; 125 g ai/ha, visual rating) | Crabgrass, Large plant response rating (0 to 100 scale) (large crabgrass; [11]) | Crabgrass, Large plant response rating (large crabgrass; 125 g ai/ha, visual rating) | Surinam Grass plant response rating (0 to 100 scale) (Surinam grass; [11]) | Plant response rating, Surinam Grass (Surinam grass; [12]) | Surinam Grass plant response rating (Surinam grass; 125 g ai/ha, visual rating)
10: Lambsquarters plant response rating (lambsquarters; 500 g ai/ha, visual rating) | Pigweed plant response rating (pigweed; 125 g ai/ha, visual rating) | Foxtail, Giant plant response rating (giant foxtail; 500 g ai/ha, visual rating) | Plant response rating, Velvetleaf (velvetleaf; [12]) | Velvetleaf plant response rating (velvetleaf; 500 g ai/ha, visual rating) | Corn plant response rating (corn; 500 g ai/ha, visual rating) | Crabgrass, Large plant response rating (large crabgrass; 500 g ai/ha, visual rating) | Surinam Grass plant response rating (Surinam grass; 500 g ai/ha, visual rating)
100: Plant response rating, Crabgrass, Large (large crabgrass; [12])
20: Pigweed plant response rating (pigweed; 500 g ai/ha, visual rating) | Cocklebur plant response rating (cocklebur; 500 g ai/ha, visual rating) | Plant response rating, Barnyardgrass (barnyardgrass [7]; [12]) | Plant response rating, Sedge, Umbrella [10, 15]
80: Plant response rating, Pigweed (pigweed; [12]) | Sedge, Umbrella plant response rating [6] | Ducksalad plant response rating (ducksalad [8])
